Measured values from patent US5298496A (Chinoin Gyogyszer- ES Vegyeszeti Termekek Gyara Rt., priority 1990, dated 1994).
Values belong to the compound of their own block, whether it stands above or below them.

Columns and labels:
[1] = UV spectrum shift of dilute aqueous SIN 1 solution (about 10 μg/ml) with cyclodextrins, diffuse lighting, room temperature; type: physicochemical; conditions: for efficiency sequence concluded from the UV spectrum shift: stabilizing effect on SIN 1, ranking in words
Description: The solutions were stored at room temperature (20°-22° C.) in diffuse lighting and in certain periods (daily) the UV spectrum of the solutions were registered in the interval between 220-350 nm. As a control only the aqueous solution, and the 0,05N hydrochloric acid solution were used respectively. […] The pH values of the applied cyclodextrin solutions of greatest concentration differed only within ±0.2 unit from the pH value of distilled water.
The decomposition hindering, slow down effect of DIMEB (2,6-di-O-methyl-β-cyclodextrin) is definite too. In the presence of 20 mg/ml DIMEB the spectrum of the solution has shown only a shift within 1 nm after a 6 day storage. We also tested the stabilizing effect of TRIMEB (2,3,6-tri-O-methyl-β-cyclodextrin), of γ-CO, β-CO and of hydroxypropyl-β-CO. The efficiency sequence concluded from the UV spectrum shift was as follows: […]

rats = experiment: Cardioprotective activity on rats, p.o.; type: in vivo
[2] = Thin-layer chromatography of SIN 1 decomposition with and without CDPSI; type: physicochemical; conditions: 1 day of storage
Description: In such a concentration range spectrophotometric measurement dose not give a descriptive picture. For this reason the decomposition degree was determined by thin-layer chromatography in the following way: From the solutions 10 μl were dropwise added on a Kieselgel 60 F254 plate (10×10 cm, Merck). Running mixture: cyclohexane:ethyl-acetate in a ratio of 1:1. The running tub was let for 30 minutes to saturation. On the plate also SIN 1C reference solution was dropwise added. On the dropping spot the plate was dried in a cold air flow protected from light and it was let to run up to a […] height. During the running period the running tub was put on a dark place. After evaporation of the solvent the plate was evaluated visually in UV light at 254 nm.

[3] = tested on: potassium depolarized strips; experiment: Relaxing effect on potassium depolarized strips
[4] = HPLC decomposition test of SIN 1 in pH 6.3 phosphate buffer, 5 weeks; type: physicochemical; conditions: room temperature, protected from light, complex in pH 6.3 phosphate buffer with 50 mg/ml CDPSI, control in distilled water
Description: (§1) The quantitive measurement of the decomposition degree was carried out by the HPLC method too.
(§2) HPPLC measurement circumstances to the separation of SIN 1-SIN 1 C
(§3) ______________________________________
(§4) Beckman 114 M Solvent Delivery Module,
(§5) 165 Variable Wavelength Detektor, Hewlett-Packard
(§6) Column: Ultrasphere ODS analytical column […],
(§7) Eluent: 0.05 M sodium acetate:
(§8) flowing rate: 1.0 ml/min.
(§9) chart speed: 0.5 cm/min.
(§10) retention times: tR SIN1: 2.9 min.
1. […] Complex was formed with 50 mg/ml (100 fold quantity) of CDPSI. After storage of 5 weeks the HPLC chromatograms were evaluated.

[5] = Membrane permeation test, diffusion of SIN 1 through Visking type cellophane membrane; type: physicochemical; conditions: SIN 1 alone, 1 mg/ml, 37°±1° C.
Description: Visking type cellophane membrane (average pore diameter 24 Angstroms) was used. […] The solutions were stirred by magnetic stirrers and were kept at 37°±1° C. […] The test was repeated in the presence of different cyclodextrins at different concentrations in the donor cell compartment.

[6] = Change of λ max of SIN 1 with time in phosphate buffers of pH 6.4, 7.0 and 7.6 with and without CDPSI (UV spectrophotometry); type: physicochemical; conditions: for λ max.: 1 mg/ml SIN 1, +CDPSI 20 mg/ml
[7] = Hydrolytic decomposition of SIN 1 to SIN 1C as function of pH (literature / background); type: physicochemical; conditions: diffused lighting
Description: It can be generally said that the sydnonimine derivatives are sensitive to extreme pH values, and are decomposed quickly. […] The process is strictly pH dependent, e.g. to achieve a decomposition of 10% (SIN 1C) 53 sec. at a pH value of 8, 15 hours at a pH of 6, 67 days at a pH of 4, and 13 years at a pH of 1-2 are necessary. (Chem. Pharm. Bull. 19/6 1079, 1971). […] The decomposition can be followed from the UV spectrum directly.

[8] = HPLC decomposition test of SIN 1 in pH 7 phosphate buffer, 4 days; type: physicochemical
Description: as §1, §2, §3, §4, §5, §6, §7, §8, §9, §10
2. The test was carried out in a pH 7 phosphate buffer too, choosing similar concentration circumstances.
The chromatograms obtained after 4 days storage were evaluated.

[9] = Transformation SIN 1→SIN 1A→SIN 1C in the presence of cyclodextrins in 0.02M acetate buffer pH 5.5 (HPLC); type: physicochemical
Text: (The SIN 1A was detected by HPLC)

[10] = 4 days, 0,5 mg/ml SIN 1, 50 mg/ml CDPSI

shift of the UV spectrum ([1]; 6 day storage, 20 mg/ml DIMEB): ≤ 1 nm
efficiency sequence concluded from the UV spectrum shift [1]: CDPSI>DIMEB>TRIMEB>βCO≥HPβCO
SMILES: COC[C@H]1O[C@@H]2O[C@H]3[C@H](O)[C@@H](OC)[C@@H](O[C@H]4[C@H](O)[C@@H](OC)[C@@H](O[C@H]5[C@H](O)[C@@H](OC)[C@@H](O[C@H]6[C@H](O)[C@@H](OC)[C@@H](O[C@H]7[C@H](O)[C@@H](OC)[C@@H](O[C@H]8[C@H](O)[C@@H](OC)[C@@H](O[C@H]1[C@H](O)[C@H]2OC)O[C@@H]8COC)O[C@@H]7COC)O[C@@H]6COC)O[C@@H]5COC)O[C@@H]4COC)O[C@@H]3COC [DIMEB, 2,6-di-O-methyl-β-cyclodextrin]

efficiency sequence concluded from the UV spectrum shift [1]: CDPSI>DIMEB>TRIMEB>βCO≥HPβCO
SMILES: COC[C@H]1O[C@@H]2O[C@H]3[C@H](OC)[C@@H](OC)[C@@H](O[C@H]4[C@H](OC)[C@@H](OC)[C@@H](O[C@H]5[C@H](OC)[C@@H](OC)[C@@H](O[C@H]6[C@H](OC)[C@@H](OC)[C@@H](O[C@H]7[C@H](OC)[C@@H](OC)[C@@H](O[C@H]8[C@H](OC)[C@@H](OC)[C@@H](O[C@H]1[C@H](OC)[C@H]2OC)O[C@@H]8COC)O[C@@H]7COC)O[C@@H]6COC)O[C@@H]5COC)O[C@@H]4COC)O[C@@H]3COC [TRIMEB, 2,3,6-tri-O-methyl-β-cyclodextrin]

unchanged SIN 1 (TLC) ([2]; pH 7 buffer): still perceptible
unchanged SIN 1 (TLC) ([2]; pH 7.6 buffer): practically no longer detectable
Active ingredient content: SIN 1 [4]: 0,016
time to practically complete transformation into SIN 1C ([1]; aqueous solution without cyclodextrin, stored similarly): 2 to 3 days
decomposition of control solution ([1]; distilled water, 1 week, without CDPSI, in words): practically decomposed
T 50% (diffusion half life of SIN 1) [5]: 54 min
Δλ ([6]; buffer pH 6,4, after 6 days): 12 nm
λ max. ([6]; pH 6.4, 0 days (at preparation)): 291.5 nm
λ max. ([6]; pH 6.4, 1 day): 289.0 nm
λ max. ([6]; pH 6.4, 4 days): 284.9 nm
λ max. ([6]; pH 6.4, 6 days): 279.8 nm
λ max. ([6]; pH 7.0, 0 days (at preparation)): 290.6 nm
λ max. ([6]; pH 7.0, 1 day): 280.4 nm
λ max. ([6]; pH 7.0, 6 days): 277.3 nm
λ max. ([6]; pH 7.6, 0 days (at preparation)): 291.2 nm
λ max. ([6]; pH 7.6, 1 day): 276.4 nm
λ max. ([6]; pH 7.6, 6 days): 277.6 nm
time of decomposition in diluted aqueous solution [7]: 1 to 3 days
pH value of the solutions after storage ([8]; 4 days): 6.57
Active ingredient content: SIN 1 [8, 10]: 0.041 mg/mL
Active ingredient content: SIN 1C [8, 10]: 0.125 mg/mL
SMILES: N=c1c[n+](N2CCOCC2)[n-]o1 [SIN 1, 3-morpholino-sydnonimine]
activity in words (rats; 1 mg/kg): does not exert an activity
cardioprotective activity (rats; 1 mg/kg (complex: same active ingredient)): 11%
T/2 (duration of action) ([3]; 1 or 2 μM): 47 min
T/max (time of maximal relaxation) ([3]; after administration, 1 or 2 μM): 18 min
inhibition at 1 µM ([3]; read-out: maximal relaxation of sustained contraction): 58%

SIN 1A found vs control [9]: more than 7 fold
efficiency sequence concluded from the UV spectrum shift [1]: CDPSI>DIMEB>TRIMEB>βCO≥HPβCO
SMILES: OC[C@H]1O[C@@H]2O[C@H]3[C@H](O)[C@@H](O)[C@@H](O[C@H]4[C@H](O)[C@@H](O)[C@@H](O[C@H]5[C@H](O)[C@@H](O)[C@@H](O[C@H]6[C@H](O)[C@@H](O)[C@@H](O[C@H]7[C@H](O)[C@@H](O)[C@@H](O[C@H]8[C@H](O)[C@@H](O)[C@@H](O[C@H]1[C@H](O)[C@H]2O)O[C@@H]8CO)O[C@@H]7CO)O[C@@H]6CO)O[C@@H]5CO)O[C@@H]4CO)O[C@@H]3CO [βCO, β-cyclodextrin]
